Experiments:
Assay type in all cases: in vivo
NOD.B10.H2^b mice = assay: Tear production measured with phenol red-impregnated cotton threads in dry eye mice after removal of desiccation stress; conditions: for increased tear production compared to the control group (PBS group): 10 mg/ml in PBS, 5 μL instilled into eyeballs 5 times per day, up to 10 days after removal of desiccation stress, p<0.05; for tear production / tear volume, result in words: eye instillation 5 times per day for 10 days after removal of desiccation stress, 0.1% HA
Protocol: (§1) NOD.B10.H2^b mice were purchased from Jackson Laboratory (Bar Harbor, Me., USA). Experiments on animals were performed according to the guidelines for animal experiments of Inje University College of Medicine (No.; 2014-029) and the ARVO statement for the use of animals in ophthalmic and vision research. 12-to-16-week-old NOD.B10.H2^b mice underwent desiccation stress as being exposed to an air draft from a fan at an ambient humidity of about 40% to 50% for 18 hours per day, and then, were subjected to subcutaneous injection of 0.5 mg/0.2 mL of muscarinic receptor blockers. Also, the mice were injected with scopolamine hydrobromide (Sigma-Aldrich, St. Louis, Mo.) alternatively on hindquarters 4 times per day (9 AM, 12 PM, 3 PM, and 6 PM) for 10 days. During these experiments, behaviors and food and water intakes of the mice were not restricted. 10 days later, the mice were euthanized.
(§2) 10 days after the mice underwent desiccation stress, the scopolamine injection was halted, and then, the mice newly had environments with normal humidity and temperature. After the desiccation stress was removed, the mice were divided into a peptide I group or a peptide II group, wherein 10 mg/ml of peptide I or 10 mg/ml of peptide II was dissolved in PBS and 5 μL of PBS was instilled into eyeballs of the mice 5 times per day for 10 days. In addition, 5 μL of PBS or 5 μL of 0.1% HA were instilled into eyeballs of the mice in a control group, i.e., a PBS group or a hyaluni (HA) group, 5 times a day for 10 days. In each group, both eyes of each of 5 mice were used to conduct the experiments in a repetitive manner.
Extents of tear production were measured with phenol red-impregnated cotton threads (Zone-Quick; Oasis, Glendora, Calif.), as previously described (Villareal A L, Farley W, Pflugfelder S C. Effect of topical ophthalmic epinastine and olopatadine on tear volume in mice. Eye Contact Lens. 2006; 32(6):272-276). The threads were held medical tweezers and placed in the lateral canthus for 20 seconds. The tear volumes were expressed as millimeter (mm) of wet thread that had been turned red by the tears, as measured under a microscope (SZX7; Olympus corp, Tokyo, Japan).
The tear fluid uptakes measured in millimeters were compared to a standard curve that was prepared from cotton threads with known uptake volumes of a stock basic solution ([…] of 0.9% saline and 5 mL of 5 N NaOH) over 20 seconds that were within the range that would be expected for mouse tears.

corneal epithelial cells = assay: Detachment of corneal epithelial cells (H&E stain) in dry eye mice; conditions: instillation for 10 days after removal of desiccation stress
Protocol: as §1
(§3) 10 days after the mice underwent desiccation stress, the scopolamine injection was halted, and then, the mice newly had environments with normal humidity and temperature. After the desiccation stress was removed, the mice were divided into a peptide I group or a peptide II group, wherein 10 mg/ml of peptide I or 10 mg/ml of peptide II was dissolved in PBS and 5 μL of PBS was instilled into eyeballs of the mice 5 times per day for 10 days. […]

[1] = tested on: conjunctival goblet cells; assay: Distribution of conjunctival goblet cells (PAS stain) in dry eye mice; conditions: instillation after removal of desiccation stress, p<0.05; for conjunctival goblet cells: desiccation stress 7.43±1.52
Protocol: as §1, §2
The eyes and adnexa of the mice in the control groups (i.e., the PBS group and the HA group) and the experimental groups (i.e., the peptide I group and the peptide II group) were surgically excised, fixed in 10% formalin, and embedded in paraffin and an OCT compound.
6 μm sections of the tissue samples were stained with haematoxylin and eosin (H&E) and periodic acid-Schiff (PAS) reagent.
5 animals in each group were subjected to the staining as described above, and then, were examined and photographed with a virtual microscope (NanoZoomer 2.0 RS, Hamamatsu, Japan).
The distribution of the conjunctival goblet cells in the dry eye mice were observed following peptide I, peptide II, and HA instillation.

[2] = tested on: TNF-α, ICAM-1, VCAM-1, MMP-2, and MMP-9; assay: Immunohistochemical analysis of inflammatory markers in conjunctiva of dry eye mice; conditions: instillation for 10 days after removal of desiccation stress
Protocol: as §1, §3

| Substance | increased tear production compared to the control group (PBS group) (NOD.B10.H2^b mice) | tear production / tear volume, result in words (NOD.B10.H2^b mice) | number of detached corneal epithelial cells (corneal epithelial cells; DS 10D 2.29±0.61, PBS 1.43±0.34) | conjunctival goblet cells [1] [cells/0.1 mm^2] | increase of conjunctival goblet cells that were decreased by desiccation stress [1] | expression of inflammatory markers (TNF-α, ICAM-1, VCAM-1, MMP-2, MMP-9) in the conjunctiva, result in words [2] | decrease of detachment of corneal epithelial cells compared to the control groups (corneal epithelial cells) |
| --- | --- | --- | --- | --- | --- | --- | --- |
| GDRGD [peptide I, collagen type I α1 based peptide GDRGD] | about 2.52 fold | recovering the tear volumes up to normal tear volumes | about 0.19±0.14 /0.1 mm^2 | 13.3 ± 2.41 | about 1.8 fold | significantly decreased |  |
| GQDGLAGPK [peptide II, collagen type II α1 based peptide …] | about 2.52 fold | recovering the tear volumes up to normal tear volumes |  | 12.1 ± 1.11 | about 1.63 fold | significantly decreased | about 4 fold |

Source: patent US10913788B2, “Pharmaceutical composition for preventing or treating dry eyes” (EYEBIO KOREA, priority 2015, dated 2021)
